For assay [1], the system named is p-smad2/3 protein. Description: p-smad2/3 protein expression in TGF-β1-induced NHLF, western blotting (Example 4). The class given is cell-based, human. As to conditions: uninduced control = 1, TGF-β1-only group A = 1.42. The protocol:
Normal Human lung fibroblasts (NHLF) were seeded into 6 cm culture dishes at a density of 2×10^5 cells/dish, comprising a control group and five experimental groups (6 dishes in total). The cells were cultured until the next day, and then the mediums were removed. Each group was respectively treated under the following conditions to conduct follow-up experiments: • (1) Control group: cells were cultured in a FGM-2 medium containing 1% serum for 36 hours; • (2) Group A: cells were cultured in a FGM-2 medium containing 1% serum and TGF-β1 (5 ng/ml) for 36 hours; • (3) Group B: cells were firstly cultured in a FGM-2 medium containing 1% serum and TGF-β1 (5 ng/ml) for 12 hours, and then compound (1) was added into the medium to provide a final concentration of 15 μg/ml; thereafter, the cells were cultured for another 24 hours; • (4) Group C: cells were firstly cultured in a FGM-2 medium containing 1% serum and TGF-β1 (5 ng/ml) for 12 hours, and then compound (1) was added into the medium to provide a final concentration of 30 μg/ml; thereafter, the cells were cultured for another 24 hours; • (5) Group D: cells were firstly cultured in a FGM-2 medium containing 1% serum and TGF-β1 (5 ng/ml) for 12 hours, and then compound (2) was added into the medium to provide a final concentration of 100 μg/ml; thereafter, the cells were cultured for another 24 hours; and • (6) Group E: cells were firstly cultured in a FGM-2 medium containing 1% serum and TGF-β1 (5 ng/ml) for 12 hours, and then compound (2) was added into the medium to provide a final concentration of 200 μg/ml; thereafter, the cells were cultured for another 24 hours.
Thereafter, the proteins in the cells of each group were extracted, and the expressions of BMP-7 protein, TGF-β protein and p-smad2/3 protein in the NHLF cells of each group were measured with western blotting. The results of the control group served as the basis for calculating the relative expression levels of the other groups.

Assay [2] deals with C57B/L6 mice injected with Bleomycin sulfate (inducer of pulmonary fibrosis). Description: Pulmonary function by unrestrained whole body plethysmography in Bleomycin sulfate mice. The conditions noted are these: compared to oil group; for accumulated volume (AV): p<0.01; for expiratory time (Te) / relaxation time (RT): p<0.05. The format is in vivo. The procedure: 24 C57B/L6 mice (age: four weeks) were separated into four groups (6 mice in each group). Each group was respectively treated under the following conditions to conduct follow-up experiments: • (1) Control group (mice without pulmonary fibrosis; i.e., normal mice): 50 μl of PBS was administrated to each mouse by intratracheal injection, and then the mice were fed for 30 days; • (2) Oil group: 0.6 U/50 μl of Bleomycin sulfate (dissolved in PBS) was administrated to each mouse by intratracheal injection, and then 100 μl of olive oil was orally administrated to each mouse every day for 30 days; • (3) Low-dose group: 0.6 U/50 μl of Bleomycin sulfate (dissolved in PBS) was administrated to each mouse by intratracheal injection, and then compound (1) (10 mg/kg-body weight, prepared with olive oil to provide a final volume of 100 μl) was orally administrated to each mouse every day for 30 days; and • (4) High-dose group: 0.6 U/50 μl of Bleomycin sulfate (dissolved in PBS) was administrated to each mouse by intratracheal injection, and then compound (1) (50 mg/kg-body weight, prepared with olive oil to provide a final volume of 100 μl) was orally administrated to each mouse every day for 30 days.
In this experiment, the pulmonary functions of the mice from each group of Example 5 were evaluated with Unrestrained Whole Body Plethysmography (WBP). The inspiratory and expiratory flow rates of mice were calculated by measuring changes in the air inside and outside of a specific chamber, and respiratory parameters can be obtained therefrom. The respiratory parameters comprise the peak inspiratory flow (PIF) (i.e., the maximal volume being inspired in a period of time), peak expiratory flow (PEF) (i.e., the maximal volume being expired in a period of time), inspiratory time (Ti) (i.e., the average time of inspiration in a period of time), expiratory time (Te) (i.e., the average time of expiration in a period of time), respiratory rate (RR) (i.e., the numbers of breath per minute), accumulated volume (AV) (i.e., the average volume of air being breathed per minute), tidal volume (TV) (i.e., the average volume of air being expired per time), relaxation time (RT) (i.e., the average time needed for raising the pressure of air hatch to 40% of the maximal value), etc.

The test system of assay [3] is surfactant C. Description: surfactant C in mouse pulmonary tissue, western blotting. The format is in vivo, mice. As to conditions: compared to oil group. The protocol: 24 C57B/L6 mice (age: four weeks) were separated into four groups (6 mice in each group). […]
The samples of mice pulmonary tissue provided by Example 7 and preserved at −20° C. were removed from storage, and then ground in liquid nitrogen. […] The expressions of TGF-β protein, smad3 protein and surfactant C in the samples of each group were measured with western blotting, wherein the actin served as an internal control.
On the technique in general: Immunoblotting shows a protein as a band on a membrane.

For assay [4], the system named is TGF-β. Description: TGF-β mRNA expression in NHLF, Q-PCR (3-2). The format is cell-based, human. As to conditions: 24 hours. The protocol: Normal Human lung fibroblasts (NHLF) were seeded into 6-well plate at a density of 10^5 cells/well, comprising a control group and five experimental groups (6 wells in total). The cells were cultured until the next day, and then the mediums were removed. Each group was respectively treated under the following conditions to conduct follow-up experiments: • (1) Control group: cells were cultured in a FGM-2 medium containing 1% serum for 24 hours; • (2) Group α: cells were cultured in a FGM-2 medium containing 1% serum and compound (1) (5 μg/ml) for 24 hours; • (3) Group β: cells were cultured in a FGM-2 medium containing 1% serum and compound (1) (10 μg/ml) for 24 hours; • (4) Group γ: cells were cultured in a F-12K medium containing 1% serum and H2O2 (0.1 mM) for 24 hours; • (5) Group δ: cells were cultured in a F-12K medium containing 1% serum, H2O2 (0.1 mM) and compound (1) (5 μg/ml) for 24 hours; and • (6) Group ε: cells were cultured in a F-12K medium containing 1% serum, H2O2 (0.1 mM) and compound (1) (10 μg/ml) for 24 hours.
Thereafter, the total RNA of cells taken from each group were extracted, and then reverse transcription was conducted on the total RNA by using a QuantiTect Reverse Transcription Kit to obtain cDNA therefrom. A Q-PCR was then conducted on the cDNA to analyze the mRNA expression levels of genes such as α-SMA and TGF-β, wherein GAPDH gene served as an internal control. The results of the control group served as the basis for calculating the relative expression levels of the other groups.

[5] abbreviates: High-dose group, compound (1) 50 mg/kg orally daily 30 days.
[6] abbreviates: Low-dose group, compound (1) 10 mg/kg orally daily 30 days.

Take `CCCC=C1OC(=O)c2ccccc21` [compound (1)]: the “Relative expression level (fold) p-smad2/3 protein” value stood at 0.82 fold in assay [1] (Group B: TGF-β1 5 ng/ml 12 h, then compound (1) 15 μg/ml 24 h) and 1.08 fold in assay [1] (Group C: TGF-β1 5 ng/ml 12 h, then compound (1) 30 μg/ml 24 h). Further, the other respiratory parameters result in assay [2] (setting [5]) and in assay [2] (setting [6]) was “closer to the control group” each time. For the same molecule, the “accumulated volume (AV)” value in assay [2] (setting [5]) and in assay [2] (setting [6]) was “significantly increased” each time. Besides, the “expiratory time (Te)” value in assay [2] (setting [5]) and in assay [2] (setting [6]) was “significantly decreased” in each case. Further, the “relaxation time (RT)” value in assay [2] (setting [5]) and in assay [2] (setting [6]) was “significantly decreased” each time. Further, the “expression level of surfactant C in pulmonary tissue” value in assay [3] (setting [5]) and in assay [3] (setting [6]) was “significantly higher” throughout. The “Relative expression level (fold) TGF-β” value in assay [4] (Group α: mRNA, FGM-2 medium 1% serum + compound (1) 5 μg/ml, control group = 1) stood at 0.61 fold; in assay [4] (Group β: mRNA, FGM-2 medium 1% serum + compound (1) 10 μg/ml, control group = 1), 0.12 fold; in assay [4] (Group δ: mRNA, F-12K medium 1% serum + H2O2 0.1 mM + compound (1) 5 μg/ml, control group = 1, H2O2-only group γ = 0.34) it was 0.42 fold; in assay [4] (Group ε: mRNA, F-12K medium 1% serum + H2O2 0.1 mM + compound (1) 10 μg/ml, control group = 1, H2O2-only group γ = 0.34) it was 0.04 fold.
